The values below come from patent publication US10457681B2, “Toll-like receptor 7 (TLR7) agonists having a tricyclic moiety, conjugates thereof, and methods and uses therefor” (BRISTOL-MYERS SQUIBB COMPANY, priority 2017, dated 2019).

The target in one assay is human TLR7 (Homo sapiens (Human), UniProt Q9NYK1). Description: HEK-Blue TLR7 reporter assay (TLR7 agonist activity). It counts as cell-based. As to conditions: HEK-Blue TLR7 cells, SEAP reporter, 18 h treatment; read-out: TLR7 Agonism (EC50). As to the method:
This example describes a method for assaying TLR7 agonist activity of the compounds disclosed in this specification.
HEK-Blue™ TLR7 cells were added to each well of a 384-well tissue-culture plate (15,000 cells per well) and incubated 16-18 h at 37° C., 5% CO2. Compounds (100 nl) were dispensed into wells containing the HEK-Blue™ TLR cells and the treated cells were incubated at 37° C., 5% CO2. After 18 h treatment ten microliters of freshly-prepared Quanti-Blue™ reagent (Invivogen) was added to each well, incubated for 30 min (37° C., 5% CO2) and SEAP levels measured using an Envision plate reader (OD=620 nm).

A further assay relates to IFN-α. As to conditions: fold lower potency vs corresponding purine-8-one compound; cited from earlier work.
For a further assay, the system named is interleukin 6 (IL-6). In words: Interleukin 6 induction assay in human whole blood. It counts as cell-based. As to conditions: 37° C., 20 h, AlphaLISA. As for the experimental part: This example describes a method for assaying interleukin 6 induction by compounds disclosed in this specification.
Compounds diluted in DMSO were transferred to individual wells of a Matrix Technologies clear, V-bottom 384-well plate using ECHO acoustic liquid handling technology (25 nL per well). Human whole-blood samples (25 uL) were added to each well using a CyBio FeliX liquid handling instrument. The plate was shaken on a plate shaker for three min before incu-bating the reaction mixtures at 37° C. for 20 h. Basel RPMI 1640 medium (supplemented with L-glutamine) was then added to each well (25 uL per well) prior to liberating plasma from each sample by centrifugation (450×g, 5 min, ambient temperature). Treated plasma samples (3 uL) were subsequently transferred to individual wells of a white, shallow, 384-well ProxiPlate (Perkin Elmer) using the FeliX liquid handling instrument and their interleukin 6 levels were measured using AlphaLISA technology as described by the manufacturer, PerkinElmer. Data analyses software was used to determine compound EC50 values where the baseline was established using average DMSO values and 100% induction established using reference compound values at the highest concentration tested. EC50's can be determined with software such as Graphpad Prism™.

human TLR7, sequence (Q9NYK1 27-1049): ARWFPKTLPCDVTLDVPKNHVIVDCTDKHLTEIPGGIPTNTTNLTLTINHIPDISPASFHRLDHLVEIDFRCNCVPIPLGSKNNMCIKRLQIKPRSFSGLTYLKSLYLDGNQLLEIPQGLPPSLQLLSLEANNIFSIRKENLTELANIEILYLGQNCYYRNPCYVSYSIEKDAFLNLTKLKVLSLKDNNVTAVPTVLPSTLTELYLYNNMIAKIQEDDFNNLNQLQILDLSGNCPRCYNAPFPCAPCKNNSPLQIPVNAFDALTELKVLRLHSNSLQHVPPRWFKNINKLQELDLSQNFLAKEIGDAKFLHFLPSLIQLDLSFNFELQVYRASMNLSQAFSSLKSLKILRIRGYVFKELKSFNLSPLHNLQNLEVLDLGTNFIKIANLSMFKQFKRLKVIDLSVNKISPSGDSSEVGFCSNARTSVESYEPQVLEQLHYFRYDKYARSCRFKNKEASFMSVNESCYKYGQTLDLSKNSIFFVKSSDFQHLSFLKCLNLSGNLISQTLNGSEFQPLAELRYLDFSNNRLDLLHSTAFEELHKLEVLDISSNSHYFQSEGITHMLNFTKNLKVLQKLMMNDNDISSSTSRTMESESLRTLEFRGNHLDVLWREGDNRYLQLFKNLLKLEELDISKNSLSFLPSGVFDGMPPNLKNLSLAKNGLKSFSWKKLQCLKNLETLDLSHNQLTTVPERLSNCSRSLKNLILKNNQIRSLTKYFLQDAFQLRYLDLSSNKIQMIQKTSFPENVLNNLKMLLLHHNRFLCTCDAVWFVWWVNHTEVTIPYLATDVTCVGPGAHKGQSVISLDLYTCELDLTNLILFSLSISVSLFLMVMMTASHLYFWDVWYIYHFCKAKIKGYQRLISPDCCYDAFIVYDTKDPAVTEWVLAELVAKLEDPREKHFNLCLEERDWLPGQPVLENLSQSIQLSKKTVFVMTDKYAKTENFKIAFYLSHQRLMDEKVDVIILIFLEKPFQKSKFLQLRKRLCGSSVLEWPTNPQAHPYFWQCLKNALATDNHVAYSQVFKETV

Turning to `CCCCOc1nc(N)c2c(n1)N(Cc1cccc(CN3CCCC3)c1)CC(=O)N2` [Vesatolimod, vesatolimod, reference compound], at human TLR7, the EC50 turned out to be 1200 nM. For the same molecule, the “potency less than that of the corresponding purine-8-one compound, as measured by IFN-α induction” value in the assay on IFN-α is on record as 100 ×.
As to `CCCCOc1nc(N)c2nc(O)n(Cc3ccc4c(c3)Sc3cc(CNC5COC5)ccc3N4C)c2n1` [Ia-05], the EC50 on human TLR7 turned out to be 580 nM.
Regarding `CCCCOc1nc(N)c2nc(O)n(Cc3ccc4c(c3)Sc3cc(CNC5CCC5)ccc3N4C)c2n1` [Ia-06], the EC50 on human TLR7 was determined as 93 nM; in the assay with interleukin 6 (IL-6), 750 nM.
The matching figures for `CCCCOc1nc(N)c2nc(O)n(Cc3ccc4c(c3)Sc3cc(CO)ccc3N4C)c2n1` [Ia-01]: 50 nM and 250 nM.
For `CCCCOc1nc(N)c2nc(O)n(Cc3ccc4c(c3)Sc3cc(CNC(C)C)ccc3N4C)c2n1` [Ia-02], the figures for the EC50 on human TLR7 and in the assay on interleukin 6 (IL-6) were 4.7 nM and 4.9 nM, respectively.
Regarding `CCCCOc1nc(N)c2nc(O)n(Cc3ccc4c(c3)Sc3cc(CNCc5ccccc5)ccc3N4C)c2n1` [Ia-03], the EC50 was 8.5 nM at human TLR7 and 14.4 nM in the assay with interleukin 6 (IL-6).
For `CCCCOc1nc(N)c2nc(O)n(Cc3ccc4c(c3)Sc3cc(CNC)ccc3N4C)c2n1` [Ia-04] the same measures were 39 nM and 48 nM.
Regarding `CCCCOc1nc(N)c2nc(O)n(Cc3ccccc3)c2n1` [Compound B, reference compound], the EC50 at human TLR7 came to 474 nM.
Consider `CCCCOc1nc(N)c2nc(O)n(Cc3ccc4c(c3)Sc3cc(CNCc5ccncc5)ccc3N4C)c2n1` [Ia-07], for which, on human TLR7, the half-maximal effective concentration (EC50) was 7.9 nM.
